Experimental data: paper PMC9738913 (2022)

System: d(GC)9 duplex (d(GC)9d(GC)9) (DNA, duplex) GCGCGCGCGCGCGCGCGC
Assay: fluorescence quenching and UV-vis absorption red shift
Settings: 100 mM NaCl, 50 mM sodium phosphate; PBS pH 7.4, room temperature; 5 μM proflavine, 2.5 μM DNA; intercalation

## Nc1ccc2cc3ccc(N)cc3nc2c1
  binding: yes
